Measured values taken from patent US12161630B2, “Methods to control infection using new generation small molecule growth inhibitors” (priority 2017, dated 2024).
In brackets after ≈: the same amount, converted by molar mass.

Key:
S. typhimurium WT [1] = test: High-throughput primary screen for S. typhimurium growth inhibitors at 200 μM; assay type: cell-based, Salmonella enterica subsp. enterica serovar Typhimurium LT2; details: adjusted M9 minimal broth, 12 hrs, 37° C., bactericidal = 100% growth inhibition and no growth on XLT4 agar, bacteriostatic = 100% growth inhibition but growth on XLT4 agar
Description: (§1) Identification of S. typhimurium growth inhibitors: The 4182 small molecules (SMs) were screened at 200 μM against S. typhimurium WT using HTS assay in a 96-well plate format. An overnight Salmonella suspension was normalized at 0.05 OD600 (approximately 3.5×10^7 CFU/ml) with an adjusted M9 minimal broth medium (12.7 mM Na2HPO4 7H2O; 22 mM KH2PO4; 18.7 mM NH4Cl; 2 mM MgSO4; 0.1 mM CaCl2; 0.4% glucose; 0.05% casamino acids). 100 μL of the suspension plus 2 μl of SMs (200 μM) were transferred into each well of a sterile, non-treated, flat bottom 96-well plate. Bacteria alone (negative control, NC), 2% DMSO plus bacteria (DMSO control), 20 μg/ml chloramphenicol or 50 μg/ml kanamycin plus bacteria (positive controls, PC), and M9 medium only were used as control. Plates were incubated in a Sunrise™ Tecan kinetic microplate reader for 12 hrs at 37° C. and the optical density (OD) was measure at 600 nm as described above. Percentage of inhibition=[…]. SMs were identified as growth inhibitors if their inhibition value after incubation was above 20% (value representing the inhibition level monitored with the DMSO controls). Cultures from wells showing no turbidimetric increase were transferred onto a XLT4 agar plate. Plates were incubated at 37° C. for 36 hrs.

Salmonella Enteritidis = test: MIC and MBC dose-response, serotype Enteritidis; assay type: cell-based, Salmonella enterica; details: MIC identical to MBC
Description: as §1, with “An” for “Identification of S. typhimurium growth inhibitors: The 4182 small molecules (SMs) were screened at 200 μM against S. typhimurium WT using HTS assay in a 96-well plate format. An”, “SMs were identified as growth inhibitors if their inhibition value after incubation was above 20% (value representing the inhibition level monitored with the DMSO controls).” left out
(§2) Screens were performed as described in the primary screen. The lowest SM concentration with a static effect was considered as the minimal inhibitory concentration (MIC) and the lowest SM concentration with a cidal effect was considered as the minimal bactericidal concentration (MBC).

Salmonella Anatum = test: MIC and MBC dose-response, serotype Anatum; assay type: cell-based, Salmonella enterica; details: MIC identical to MBC
Description: as §1, with “An” for “Identification of S. typhimurium growth inhibitors: The 4182 small molecules (SMs) were screened at 200 μM against S. typhimurium WT using HTS assay in a 96-well plate format. An”, “SMs were identified as growth inhibitors if their inhibition value after incubation was above 20% (value representing the inhibition level monitored with the DMSO controls).” left out
as §2

Salmonella Javiana = test: MIC and MBC dose-response, serotype Javiana; assay type: cell-based, Salmonella enterica; details: MIC identical to MBC
Description: as §1, with “An” for “Identification of S. typhimurium growth inhibitors: The 4182 small molecules (SMs) were screened at 200 μM against S. typhimurium WT using HTS assay in a 96-well plate format. An”, “SMs were identified as growth inhibitors if their inhibition value after incubation was above 20% (value representing the inhibition level monitored with the DMSO controls).” left out
as §2

S. typhimurium WT [2] = test: MIC and MBC dose-response, serotype Typhimurium; assay type: cell-based, Salmonella enterica subsp. enterica serovar Typhimurium LT2; details: Salmonella serotype Typhimurium; MIC identical to MBC
Description: as §1, with “An” for “Identification of S. typhimurium growth inhibitors: The 4182 small molecules (SMs) were screened at 200 μM against S. typhimurium WT using HTS assay in a 96-well plate format. An”, “SMs were identified as growth inhibitors if their inhibition value after incubation was above 20% (value representing the inhibition level monitored with the DMSO controls).” left out
as §2

Salmonella Albany = test: MIC and MBC dose-response, serotype Albany; assay type: cell-based, Salmonella enterica; details: MIC identical to MBC
Description: as §1, with “An” for “Identification of S. typhimurium growth inhibitors: The 4182 small molecules (SMs) were screened at 200 μM against S. typhimurium WT using HTS assay in a 96-well plate format. An”, “SMs were identified as growth inhibitors if their inhibition value after incubation was above 20% (value representing the inhibition level monitored with the DMSO controls).” left out
as §2

S. typhimurium WT [3] = test: Antimicrobial resistance studies (single step and sequential passage); assay type: cell-based, Salmonella enterica subsp. enterica serovar Typhimurium LT2
Description: Antimicrobial resistance studies: Single step and sequential passage resistance assays were performed as described (9). The MIC of the selected five SMs against S. typhimurium WT was used as reference for lethal (2×MIC) and sub-lethal (0.75×MIC) doses.
The medium was allowed to solidify overnight in the dark at room temperature. The next day, 100 μl of S. typhimurium bacteria (approximately 10^9 CFU) was transferred onto the adjusted M9 agar containing 2×MIC of SMs. S. typhimurium WT growth in 2% DMSO, 20 μg/ml chloramphenicol, or 50 μg/ml kanamycin, and adjusted M9 medium only were used as controls. The plate was sealed with parafilm and incubated for 15 days in the dark at 37° C. After 15 days, 100 μl of LB broth was added to the wells of 24-well plate showing no colonies in order to resuspend the potential surviving bacteria and transferred into a 5 ml tube.
The plate was incubated in the dark at 37° C., 175 rpm for 12 hrs. After this first passage, the plate was centrifuged for seven min at 4500 rpm. Supernatant was replaced with a fresh adjusted M9 broth media amended with 0.75×MIC of the corresponding SM. This procedure was repeated fourteen times. Following the 15th passage, a dose-response assay was performed on the remaining alive S. typhimurium bacteria as describe previously.

Salmonella Newport = test: MIC and MBC dose-response, serotype Newport; assay type: cell-based, Salmonella enterica; details: MIC identical to MBC
Description: as §1, with “An” for “Identification of S. typhimurium growth inhibitors: The 4182 small molecules (SMs) were screened at 200 μM against S. typhimurium WT using HTS assay in a 96-well plate format. An”, “SMs were identified as growth inhibitors if their inhibition value after incubation was above 20% (value representing the inhibition level monitored with the DMSO controls).” left out
as §2

Salmonella Heidelberg = test: MIC and MBC dose-response, serotype Heidelberg; assay type: cell-based, Salmonella enterica; details: MIC identical to MBC
Description: as §1, with “An” for “Identification of S. typhimurium growth inhibitors: The 4182 small molecules (SMs) were screened at 200 μM against S. typhimurium WT using HTS assay in a 96-well plate format. An”, “SMs were identified as growth inhibitors if their inhibition value after incubation was above 20% (value representing the inhibition level monitored with the DMSO controls).” left out
as §2

Salmonella Saint-Paul = test: MIC and MBC dose-response, serotype Saint-Paul; assay type: cell-based; details: MIC identical to MBC
Description: as §1, with “An” for “Identification of S. typhimurium growth inhibitors: The 4182 small molecules (SMs) were screened at 200 μM against S. typhimurium WT using HTS assay in a 96-well plate format. An”, “SMs were identified as growth inhibitors if their inhibition value after incubation was above 20% (value representing the inhibition level monitored with the DMSO controls).” left out
as §2

Salmonella Braenderup = test: MIC and MBC dose-response, serotype Braenderup; assay type: cell-based, Salmonella enterica; details: MIC identical to MBC
Kan^R S. typhimurium = test: Preventive efficacy in S. typhimurium-infected G. mellonella larvae; assay type: in vivo, Galleria mellonella; details: 72 HPI; pretreated with 12.5 μg per larva 2 hrs before infection
Description: FIGS. 4(A-B). Preventive antimicrobial efficacy of SM treatment in S. typhimurium-infected G. mellonella. Larva were first treated with 12.5 μg SMs per larva (50 mg/kg), incubated for 2 hrs at 37° C. in the dark, then infected with 10^4 CFU per larva, and further incubated at 37° C. in the dark for 72 hrs. FIG. 4A: G. mellonella larva survival rate. Survival rate was monitored every 12 hours for 72 hrs. Infected larva treated with chloramphenicol control (CK) had 100% survival. FIG. 4B: Bacterial quantification of Salmonella inside larvae following death of larva or, if alive, after 72 hours of incubation. Light black dot: larva still alive after 72 hrs post-inoculation (HPI); Black dot: larvae dead before 72 HPI.
Effect of the selected four SMs on S. typhimurium intracellular survival in G. mellonella larvae: Wax moths were selected as mentioned previously in the toxicity assay section. First, the virulence of both Kan^R and WT S. typhimurium strains in G. mellonella was assessed. Briefly, a S. typhimurium suspension normalized at approximately 10^6 CFU/ml in 10 mM MgSO4 was used as the inoculum. […] Survival rate was monitored every 12 hrs. The bacterial quantification was performed once the larvae were considered dead (dark pigmentation or no reaction to a mechanical stimulus) or after the 72 hrs of incubation. […]

Structure (SMILES)	Effect on S. Typhimurium at 200 μM (S. typhimurium WT [1])	also measured
CC1=NN(c2ccccc2)C(=O)C1C(=O)c1ccccc1 (stereo not drawn) [SM18, 4-benzoyl-5-methyl-2-phenyl-2,4-dihydro-3H-pyrazol-3-one]	Bacteriostatic	
CN(CCO)CC(O)Cn1c2ccc(Br)cc2c2cc(Br)ccc21 (stereo not drawn) [SM2, 1-(3,6-dibromo-9H-carbazol-9-yl)-3-[(2-hydroxyethyl)(methyl)amino]-2-propanol]	Bactericidal	MIC/MBC (Salmonella Enteritidis): 200 µM (≈ 91.2 µg/mL); MIC/MBC (Salmonella Anatum): 200 µM (≈ 91.2 µg/mL); MIC/MBC (Salmonella Javiana): 200 µM (≈ 91.2 µg/mL); MIC/MBC (S. typhimurium WT [2]): 100 µM (≈ 45.6 µg/mL); MIC/MBC (Salmonella Albany): 200 µM (≈ 91.2 µg/mL); resistance after repeated exposure at sub-lethal dose (S. typhimurium WT [3]; 0.75×MIC in liquid medium, 15 passages at 37° C.): developed resistance mechanisms; resistance after single exposure at a lethal dose (S. typhimurium WT [3]; 2×MIC in solid medium): developed resistance mechanisms; SM concentration at which resistant bacteria were able to grow (S. typhimurium WT [3]; minimal growth condition, represents 4×MBC): 400 µM; MIC/MBC (Salmonella Newport): 200 µM (≈ 91.2 µg/mL); MIC/MBC (Salmonella Heidelberg): 200 µM (≈ 91.2 µg/mL); MIC/MBC (Salmonella Saint-Paul): 200 µM (≈ 91.2 µg/mL); MIC/MBC (Salmonella Braenderup): 200 µM (≈ 91.2 µg/mL)
Clc1ccc(CCNC2CCN(Cc3ccccc3)CC2)c(Cl)c1 [SM13, 1-benzyl-N-[2-(2,4-dichlorophenyl)ethyl]-4-piperidinamine]	Bacteriostatic	
O=C(N[C@H](CO)[C@H](O)c1ccc([N+](=O)[O-])cc1)C(Cl)Cl [chloramphenicol]		survival of infected larvae (Kan^R S. typhimurium): 100%
CN(Cc1ccccc1)CC(O)COc1ccc(CNCc2ccc(Cl)s2)cc1 (stereo not drawn) [SM6, 1-[benzyl(methyl)amino]-3-[4-({[(5-chloro-2-thienyl)methyl]amino}methyl)phenoxy]-2-propanol]	Bactericidal	
O=[N+]([O-])c1ccc(F)c(N=Cc2cc(Cl)cc(Cl)c2O)c1 [SM7, 2,4-dichloro-6-{[(2-fluoro-5-nitrophenyl)imino]methyl}phenol]	Bactericidal	
O=C(O)c1cc(NN=Nc2ccc(Br)cc2)cc([N+](=O)[O-])c1 [SM12, 3-[3-(4-bromophenyl)-2-triazen-1-yl]-5-nitrobenzoic acid]	Bacteriostatic	
COc1ccc(CNCc2ccc(C)cc2)cc1OCC(O)CN1CCCCCCC1 (stereo not drawn) [SM15, 1-(1-azocanyl)-3-(2-methoxy-5-{[(4-methylbenzyl)amino]methyl}phenoxy)-2-propanol]	Bacteriostatic	
COc1cccc(N=Cc2cc(Cl)cc(Cl)c2O)c1 [SM8, 2,4-dichloro-6-{[(3-methoxyphenyl)imino]methyl}phenol]	Bactericidal	
CCOC(=O)c1c(N)sc(C(C)=O)c1C [SM10, ethyl 5-acetyl-2-amino-4-methyl-3-thiophenecarboxylate]	Bacteriostatic	
COc1cccc(C2(c3ccc(O)cc3)CCCC2)c1 [SM11, 4-[1-(3-methoxyphenyl)cyclopentyl]phenol]	Bacteriostatic	
C(=Cc1ccccc1)CN1CCN(C2c3ccccc3-c3ccccc32)CC1 [SM19, 1-(9H-fluoren-9-yl)-4-(3-phenyl-2-propen-1-yl)piperazine]	Bacteriostatic	
CC(C)Cc1ccc(CN2CCCC(NC(=O)CN3CCCN(C)CC3)C2)cc1 (stereo not drawn) [SM9, N-[1-(4-isobutylbenzyl)-3-piperidinyl]-2-(4-methyl-1,4-diazepan-1-yl)acetamide]	Bactericidal	
CN1C(=O)NC(=O)C(=Cc2ccc([N+](=O)[O-])o2)C1=O [SM17, 1-methyl-5-[(5-nitro-2-furyl)methylene]-2,4,6(1H,3H,5H)-pyrimidinetrione]	Bacteriostatic	
COc1cccc(N=Cc2cc(Br)ccc2O)c1 [SM16, 4-bromo-2-{[(3-methoxyphenyl)imino]methyl}phenol]	Bacteriostatic	
